Results taken from PMC12040169 (PLOS Biology, 2025).

Assay: in vitro
Conditions: human, hela cells, % viability

SMILES	viability at 28.5 h, 10 µM	viability at 28.5 h, 10 µM (bulk resorufin, single well)
Cc1cnccc1-c1cn(C)nc1-c1ccc(CNC(=O)c2cccc(N(C)C)c2)cc1 [CBK285633]	86.5%	
Cc1cnc2c(C(=O)N3CC(C(=O)N4CCN(c5ccccc5)CC4)C3)cnn2c1 [CBK285641]	92.4%	
CCC(=O)N1CCCC1c1nc(C)c2c(n1)N(Cc1ccccc1OC)CCC2 (stereo not drawn) [CBK285642]	91.9%	
Cc1nc(-c2ccc(CNS(=O)(=O)c3ccc(Cl)cc3)cc2)ccc1C(N)=O [CBK285643]	90.5%	
Cc1ccc(-c2cc(C(=O)NCc3ccc(-c4ccc(C(N)=O)c(C)n4)cc3)no2)cc1 [CBK285644]	116%	
COc1cc(CN2C[C@@H](c3ccccc3)[C@@H]3NC(=O)CCCC[C@H]32)cc(OC)c1 [CBK285646]	89.6%	
Nc1ncc(-c2ccc(C(F)(F)F)cc2)c(C2CCCN(C(=O)CN3CCCC3)C2)n1 (stereo not drawn) [CBK285649]	91.6%	
COc1ccccc1-c1ccc(NC(=O)CCc2nc3ccccc3[nH]2)cc1 [CBK285651]	103%	
Cc1ccc(C)c(C2CCCN2C(=O)c2ccc(=O)n(CC(=O)N(C)c3ccccc3)c2)c1 (stereo not drawn) [CBK285654]	97.5%	
O=C(c1ccccc1F)N1C[C@H](c2ccsc2)[C@H]2CN(Cc3cccc(F)c3)CC[C@H]21 [CBK285660]	120%	
O=C(c1ccccc1F)N1C[C@H](c2ccsc2)[C@H]2CN(Cc3ccsc3)CC[C@H]21 [CBK285661]	107%	
CN(C(=O)Cn1cc(C(=O)NCC(C)(C)c2ccc(F)cc2)ccc1=O)c1ccccc1 [CBK285662]	108%	
Cc1nc(CC(NC(=O)C(c2ccccc2)c2ccccc2)c2ccc(F)cc2)cc(=O)[nH]1 (stereo not drawn) [CBK285669]	101%	
COc1ccc(-c2csc(CCNC(=O)Cc3c[nH]c(=O)[nH]c3=O)n2)cc1 [CBK285670]	92.4%	
COc1cccc(CNC(=O)c2cc3c(nc2N)CCN(Cc2cccc(C)c2OC)C3)c1 [CBK285682]	98.6%	
O=C(Nc1ccc(-c2ccc(F)cc2)cc1)c1ccc(N2C(=O)CCC2=O)cc1 [CBK285683]	98%	
CNC(=O)C1(Cc2ccccc2-c2cccs2)CCN(C(=O)COc2ccccc2)CC1 [CBK285684]	118%	
CNC(=O)C1(Cc2ccccc2-c2cccs2)CCN(C(=O)c2ccccc2OC)CC1 [CBK285685]	107%	
CNC(=O)C1(Cc2ccccc2-c2cccs2)CCN(C(=O)Cc2cccc(C)c2)CC1 [CBK285686]	105%	
Cc1ccc2c(c1)C(=O)CC1(CCN(C(=O)Cc3c(C)[nH]c(=O)[nH]c3=O)CC1)O2 [CBK285688]	91.6%	
CCNC(=O)C1(Cc2ccccc2-c2ccccc2)CCN(C(=O)c2cccc(F)c2)CC1 [CBK285689]	88.7%	
NC(=O)C1(Cc2ccccc2-c2cccc(F)c2)CCN(C(=O)c2cccc(F)c2)CC1 [CBK285693]	96.8%	
CCCNC(=O)C1(Cc2ccccc2-c2cccs2)CCN(C(=O)c2ccccc2)CC1 [CBK285694]	95%	
CNC(=O)C1(Cc2ccccc2-c2ccccc2)CCN(C(=O)Cc2ccccc2)CC1 [CBK285695]	93.3%	
CNC(=O)C1(Cc2ccccc2-c2ccccc2)CCN(C(=O)CCC2CCCC2)CC1 [CBK285696]	89.4%	
CNC(=O)C1(Cc2ccccc2-c2cccs2)CCN(C(=O)Cc2ccc(C)cc2)CC1 [CBK285697]	95%	

SMILES	viability at 28.5 h, 10 µM	viability at 28.5 h, 10 µM (bulk resorufin, single well)
CCNC(=O)C1(Cc2ccccc2-c2ccccc2)CCN(C(=O)c2csc(C)c2)CC1 [CBK285698]	93.3%	
CCNC(=O)C1(Cc2ccccc2-c2ccccc2)CCN(C(=O)c2ccccc2)CC1 [CBK285700]	109%	
Cc1nc(CN2[C@H]3CCCCC(=O)N[C@@]3(C)C[C@H]2c2cccc(C(F)(F)F)c2)cs1 [CBK285701]	91.1%	
CC(C)(Oc1ccc(F)cc1)C(=O)N1CCC(C(=O)NCCc2ccccc2)C1 (stereo not drawn) [CBK285702]	101%	
O=C(C1CCN(S(=O)(=O)c2ccc(F)cc2)C1)N1CCN(C2CCCC2)CC1 (stereo not drawn) [CBK285703]	96.6%	
Cc1nc2ccccc2c(=O)n1CCC(=O)N1CCc2sccc2C1c1ccco1 (stereo not drawn) [CBK285706]	94.3%	
O=C(Nc1nc2c(s1)CCCCC2)C1CCN(S(=O)(=O)c2ccc(F)cc2)C1 (stereo not drawn) [CBK285708]	111%	
Cn1c(-c2ccccc2)cnc1NC(=O)C1CCN(S(=O)(=O)c2ccc(F)cc2)C1 (stereo not drawn) [CBK285709]	95.6%	
COc1ccc(C2(C(=O)Nc3ccc(-c4ccccc4OC)cc3)CCOCC2)cc1 [CBK285710]	89.5%	
COc1ccccc1-c1ccc(NC(=O)CCn2cnc3ccccc3c2=O)cc1 [CBK285711]	95.2%	
O=C(CCC1C(=O)NC(=O)NC1=O)Nc1ccc(Oc2ccc(F)cc2)cc1 [CBK285712]		88%
COc1cccc(C(NC(=O)C2COc3ccc(OC)cc3C2)c2ccccc2)c1 (stereo not drawn) [CBK285713]	97.7%	
Cc1ccccc1-c1ccccc1CC1(C(=O)N(C)C)CCN(C(=O)CC(C)(C)C)CC1 [CBK285715]	95.1%	
CCNC(=O)C1(Cc2ccccc2-c2ccccc2C)CCN(C(=O)c2ccccc2)CC1 [CBK285716]	96.6%	
CCNC(=O)C1(Cc2ccccc2-c2ccccc2C)CCN(C(=O)C2CCCCC2)CC1 [CBK285717]	106%	
CNC(=O)C1(Cc2cccc(-c3cccs3)c2)CCN(C(=O)c2ccccc2)CC1 [CBK285720]	88.3%	
Cc1ccccc1-c1ccccc1CC1(C(N)=O)CCN(C(=O)c2ccccc2)CC1 [CBK285721]	89.9%	
COc1cccc(C(=O)N2CCC(Cc3ccccc3-c3ccccc3C)(C(N)=O)CC2)c1 [CBK285722]	94.5%	
Cc1ccccc1-c1ccccc1CC1(C(N)=O)CCN(C(=O)Cc2ccccc2)CC1 [CBK285724]	106%	
Cc1ccccc1-c1ccccc1CC1(C(N)=O)CCN(C(=O)CCc2ccccc2)CC1 [CBK285725]	102%	
COc1cccc(C(=O)N2CCC(Cc3ccccc3-c3ccccc3)(C(N)=O)CC2)c1 [CBK285729]	93.6%	
Cc1cccc(CC(=O)N2CCC(Cc3ccccc3-c3ccccc3)(C(N)=O)CC2)c1 [CBK285731]	103%	
CNC(=O)C1(Cc2cccc(-c3cccs3)c2)CCN(C(=O)COc2ccccc2)CC1 [CBK285732]	95.5%	
O=C(Nc1cccc(-c2cccc(F)c2)c1)c1ccccc1Cn1cncn1 [CBK285735]	87.4%	
COc1cccc(C(NC(=O)C2COc3c(cccc3OC)C2)c2ccccc2)c1 (stereo not drawn) [CBK285736]	94.7%	
COc1ccc(C(NC(=O)c2ccc(N3C(=O)CCC3=O)cc2)c2ccccc2)cc1 (stereo not drawn) [CBK285737]	93%	

SMILES	viability at 28.5 h, 10 µM	viability at 28.5 h, 10 µM (bulk resorufin, single well)
COc1cccc(CC(=O)N2CCC(Cc3cccc(-c4cccs4)c3)(C(N)=O)CC2)c1 [CBK285738]	96.4%	
NC(=O)C1(Cc2cccc(-c3cccs3)c2)CCN(C(=O)COc2ccccc2)CC1 [CBK285741]	103%	
CNC(=O)C1(Cc2cccc(-c3cccs3)c2)CCN(C(=O)Cc2ccccc2)CC1 [CBK285745]	93.3%	
CNC(=O)C1(Cc2ccccc2-c2cccs2)CCN(C(=O)Cc2ccccc2)CC1 [CBK285746]	90.8%	
COc1ccccc1-c1ccc(NC(=O)C2(c3cccc(F)c3)CCOCC2)cc1 [CBK285747]	103%	
COc1ccc(C(NC(=O)c2ccc(C(C)N3CCOCC3)o2)c2ccccc2)cc1 (stereo not drawn) [CBK285748]	112%	
CC(C)NC(=O)C1(Cc2ccc(-c3ccccc3)cc2)CCN(C(=O)C2CCC2)CC1 [CBK285750]	102%	
CC(C)NC(=O)C1(Cc2ccc(-c3ccccc3)cc2)CCN(C(=O)C2CCCC2)CC1 [CBK285751]	101%	
Cc1cccc(CC(=O)N2CCC(Cc3cccc(-c4cccs4)c3)(C(N)=O)CC2)c1 [CBK285752]	107%	
O=C(Cn1cc(C(=O)NCc2ccccc2)ccc1=O)NC1(c2ccccc2)CCCC1 [CBK285753]	95.7%	
Cc1cccc(-c2ccc(CC3(C(=O)NC(C)C)CCN(C(=O)C4CC4)CC3)cc2)c1 [CBK285757]	93.3%	
Cc1cccc(-c2ccc(CC3(C(=O)NC(C)C)CCN(C(=O)C(C)(C)C)CC3)cc2)c1 [CBK285758]	96.2%	
CNC(=O)C1(Cc2ccc(-c3ccccc3)cc2)CCN(C(=O)CC2CCCCC2)CC1 [CBK285763]	112%	
CNC(=O)C1(Cc2ccc(-c3ccccc3)cc2)CCN(C(=O)Cc2ccccc2)CC1 [CBK285764]	103%	
CNC(=O)C1(Cc2ccc(-c3ccccc3)cc2)CCN(C(=O)CCc2ccccc2)CC1 [CBK285765]	91.8%	
CNC(=O)C1(Cc2ccc(-c3ccccc3)cc2)CCN(C(=O)COc2ccccc2)CC1 [CBK285766]	92.7%	
CNC(=O)C1(Cc2ccc(-c3ccccc3)cc2)CCN(C(=O)Cc2ccccc2F)CC1 [CBK285768]	94.8%	
COc1cccc(C(=O)N2CCC(Cc3ccc(-c4ccccc4)cc3)(C(N)=O)CC2)c1 [CBK285770]	103%	
NC(=O)C1(Cc2ccc(-c3ccccc3)cc2)CCN(C(=O)Cc2ccccc2)CC1 [CBK285771]	115%	
Cc1cccc(-c2ccc(CC3(C(N)=O)CCN(C(=O)c4ccccc4)CC3)cc2)c1 [CBK285778]	93.9%	
Cc1cccc(-c2ccc(CC3(C(N)=O)CCN(C(=O)Cc4ccccc4)CC3)cc2)c1 [CBK285780]	101%	
NC(=O)C1(Cc2cccc(-c3cccs3)c2)CCN(C(=O)CCc2ccccc2)CC1 [CBK285782]	91.3%	
CNC(=O)C1(Cc2ccc(-c3ccccc3)cc2)CCN(C(=O)c2cccc(OC)c2)CC1 [CBK285788]	105%	
Nc1ncc(-c2ccc(C(F)(F)F)cc2)c(C2CCCN(C(=O)c3ccccc3)C2)n1 (stereo not drawn) [CBK285790]	89.2%	
Nc1ncc(-c2ccc(C(F)(F)F)cc2)c(C2CCCN(C(=O)C3CCCCC3)C2)n1 (stereo not drawn) [CBK285791]	98.9%	
CCNC(=O)C1(Cc2ccc(-c3cccs3)cc2)CCN(C(=O)Cc2ccccc2)CC1 [CBK285795]	115%	
